Data reported in paper PMC5519068 (PLoS ONE, 2017).
Like-named read-outs stand apart in the source and are kept apart here.

Key:
[1] = system: bone marrow mononuclear cells from normal donors; assay: Apoptosis by flow cytometry for cell-surface phosphatidylserine in normal cells (non-specific cytotoxicity); format: cell-based, human; details: 3 μM; three normal donors
Procedure: Cells were then analyzed on a BD Accuri C6 Flow cytometer and the resulting data were evaluated using the BD CSampler software.
The presence of apoptotic cells was then assayed 48 and 72 h later by flow cytometry for cell-surface phosphatidylserine. […] To assess non-specific cytotoxicity, bone marrow mononuclear cells from three normal donors were cultured and treated with inhibitors under identical conditions, followed by flow cytometry for apoptotic cells.

[2] = system: Flt3-ITD in TF-1/Flt3-ITD cells; assay: Immunoprecipitation/immunoblot of Flt3 phosphotyrosine content in TF-1/Flt3-ITD cells; format: cell-based, human; details: compound at in vitro IC90 for Fes, 16 h (tandutinib: IC90 for Flt3-ITD, 6 h)
Procedure: (§1) AML cells (2.5 x 10^6 in 5 mL) were cultured in the presence of kinase inhibitors or DMSO alone for 6 to 16 hours prior to lysis by sonication in RIPA buffer (50 mM Tris-HCl, pH 7.4, 150 mM NaCl, 1 mM EDTA, 1% Triton X-100, 0.1% SDS, 1% sodium deoxycholate) supplemented with 1 mM sodium orthovanadate, 1 mM sodium fluoride, 5 units/ml Benzonase (Novagen), and SigmaFAST EDTA-free protease inhibitor cocktail (Sigma). Flt3 and Fes were immunoprecipitated from 1 mg of cell lysate with 2 μg of antibody and 25 μL of protein G-Sepharose beads (Life Technologies) overnight at 4°C. Immunoprecipitates were washed three times by resuspension in 1.0 ml of RIPA buffer. Immunoprecipitated proteins were separated by SDS-PAGE, transferred to PVDF membranes and probed with the indicated antibodies followed by alkaline phosphatase-linked secondary antibodies. CDP-Star Western Blot Chemiluminescence Reagent (Perkin-Elmer) was used for detection.
(§2) Raw fluorescence data were corrected for background and then normalized to cultures grown in the presence of the DMSO carrier solvent. Each condition was performed in triplicate, and results are presented as the mean of the normalized values ± the SD. The resulting dose-response curves were fitted by non-linear regression analysis for estimation of the IC50 values (see Table 2). […] Fes and Flt3 kinase proteins were then immunoprecipitated from cell lysates followed by immunoblotting with antibodies to phosphotyrosine (pTyr), the Fes activation loop phosphotyrosine (pY713), as well as the Flt3 and Fes proteins.

[3] = system: Flt3-ITD in MV4-11 and MOLM-14 cells; assay: Immunoprecipitation/immunoblot of Flt3 phosphotyrosine content in AML cells; format: cell-based, human; details: compound at in vitro IC90 for Fes, 16 h (tandutinib: IC90 for Flt3-ITD, 6 h)
Procedure: as §1
Fes and Flt3 kinase proteins were then immunoprecipitated from cell lysates, followed by immunoblotting with antibodies to phosphotyrosine (pTyr), the Fes activation loop phosphotyrosine (pY713), as well as the Flt3 and Fes proteins.

Flt3 = target: Flt3; set-up: method as in PMID 22520759; details: cited from earlier work
[4] = system: TF-1 cells expressing Flt3-WT; assay: Inhibitor sensitivity of TF-1 cell populations, CellTiter-Blue, 72 h; format: cell-based
Procedure: (§3) Cells were seeded at a density of 100,000 cells per 1.0 ml in 48-well culture plates. Compounds were added to various concentrations while holding the DMSO concentration constant at 0.1%. Cell viability was assessed 72 hours later using the CellTiter-Blue Cell Viability assay (Promega) according to the manufacturer’s protocol and a SpectraMax Multi-Mode Microplate Reader (Molecular Devices). IC50 values were determined by non-linear regression analysis of concentration-response curves using the GraphPad PRISM software package (version 6.0). Apoptosis was determined using the same cell culture conditions and the Apo-ONE Homogeneous Caspase-3/7 Assay (Promega) and the manufacturer’s protocol.
For each retroviral transduction, TF-1 cells (1 x 10^6) were suspended in 5 mL of undiluted viral supernatant and plated in one well of a 6-well tissue culture dish. Polybrene (Sigma) was added to a final concentration of 4 μg/mL and the TF-1 cells were centrifuged at 1000 x g for 3 hours to enhance retroviral mediated gene transfer. After centrifugation, the virus was removed and replaced with fresh medium.
as §2

[5] = system: Flt3-ITD+ AML cell lines (MV4-11, MOLM-13, MOLM-14); assay: Apoptosis, Apo-ONE Caspase 3/7 assay; format: cell-based, human; details: 1.0 μM, 72 h
Procedure: as §3
Cell viability was measured in parallel using the CellTiter-Blue assay, and the resulting data are presented as the ratio of Caspase activity to cell viability as per the manufacturer’s protocol. All assays were performed in triplicate, and data are presented as the mean ratios ± SD. Asterisks indicate statistical significance between each treatment group vs. the corresponding DMSO control group with p < 0.05 (Student’s t-test).

THP-1 cells = assay: Growth inhibition, CellTiter-Blue viability, 72 h; format: cell-based; details: Homo sapiens, THP-1 (wild-type Flt3), read-out: Growth Suppression in AML Cell Lines (IC50, nM) THP-1
Procedure: as §3
(§4) Fig 2 Fes tyrosine kinase inhibitors induce growth arrest in Flt3-ITD^+ AML cell lines. A) The Flt3-ITD^+ cell lines MV4-11, MOLM-13, and MOLM-14, along with THP-1 (wild-type FLT3) were incubated with each of the kinase inhibitors shown over a range of concentrations, and cell viability was measured 72 h later using the CellTiter-Blue Assay (see Materials and methods). Raw fluorescence data were corrected for background and then normalized to cultures grown in the presence of the DMSO carrier solvent. Each assay condition was performed in triplicate, and results are presented as the mean of the normalized values ± the SD. The resulting dose-response curves were fitted by non-linear regression analysis, and the resulting IC50 values are shown in Table 1.

MOLM-14 cells = assay: Growth inhibition, CellTiter-Blue viability, 72 h; format: cell-based; details: Homo sapiens, MOLM-14 (Flt3-ITD+), read-out: Growth Suppression in AML Cell Lines (IC50, nM) MOLM-14
Procedure: as §3, §4

MOLM-13 cells = assay: Growth inhibition, CellTiter-Blue viability, 72 h; format: cell-based; details: Homo sapiens, MOLM-13 (Flt3-ITD+), read-out: Growth Suppression in AML Cell Lines (IC50, nM) MOLM-13
Procedure: as §3, §4

[6] = system: Flt3-D835Y in TF-1/Flt3-D835Y cells; assay: Immunoprecipitation/immunoblot of Flt3-D835Y phosphotyrosine content in TF-1/Flt3-D835Y cells; format: cell-based, human; details: immunoblot, compound at in vitro IC90
Procedure: as §1, §2

Compound | Increase in apoptosis in normal bone marrow mononuclear cells [1] | Inhibition of Flt3-ITD phosphotyrosine content in TF-1/Flt3-ITD cells [2] | Inhibition of Flt3-ITD phosphotyrosine content in MV4-11 and MOLM-14 cells [3] | KINOMEscan binding to Flt3 (Flt3) | IC50 ([4]; Homo sapiens, TF-1, 72 h; read-out: Inhibitor sensitivity of TF-1 Cell Populations (IC50, nM) Flt3-WT) | Apoptosis (Caspase 3/7 activity) in Flt3-ITD+ AML cell lines [5] | IC50 (THP-1 cells) | IC50 (MOLM-14 cells) | IC50 (MOLM-13 cells) | Inhibition of Flt3-D835Y phosphotyrosine content in TF-1/Flt3-D835Y cells [6] | IC50 ([4]; Homo sapiens, TF-1, 72 h, read-out: Inhibitor sensitivity of TF-1 Cell Populations (IC50, nM) Flt3-WT)
CCN1CCN(Cc2ccc(NC(=O)c3ccc(C)c(Oc4ccnc5[nH]ccc45)c3)cc2C(F)(F)F)CC1 [HG7-92-01] | ≤ 10% | inhibited both Flt3-ITD and Fes | inhibited Flt3-ITD and Fes in both cell lines | bind to a wider range of kinases (including Flt3) | > 1000 nM | equal to or greater than that observed with tandutinib | > 3000 nM | 34 nM | 93 nM | without effect | 
COc1cc(N2CCC(O)CC2)ccc1Nc1nc(Nc2ccccc2S(=O)(=O)C(C)C)c2cn[nH]c2n1 [WZ4-49-1] |  | only inhibited the activity of Fes | only inhibited Fes |  |  | less pronounced | > 3000 nM | 994 nM | 884 nM | complete inhibition | > 3000 nM
